Measurements from patent US5532366A, “Heterocyclic amides” (Zeneca Limited, priority 1992, dated 1996).

Target: T1, human leukocyte elastase (HLE) (Homo sapiens, UniProt P08246)
T1 sequence (P08246 30-267): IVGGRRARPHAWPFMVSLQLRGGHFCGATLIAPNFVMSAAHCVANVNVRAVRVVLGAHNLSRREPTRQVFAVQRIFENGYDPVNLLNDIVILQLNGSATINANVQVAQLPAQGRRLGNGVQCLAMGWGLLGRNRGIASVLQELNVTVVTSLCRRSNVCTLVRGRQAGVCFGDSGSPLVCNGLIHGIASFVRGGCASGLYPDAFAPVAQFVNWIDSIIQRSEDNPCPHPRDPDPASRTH
Test: Inhibition of human leukocyte elastase (HLE) on methoxy-succinyl-alanyl-alanyl-prolyl-valine-p-nitroanilide, Ki (Inhibition Measurements)
Format: biochemical
Conditions: kinetic determination of dissociation constant; substrate methoxy-succinyl-alanyl-alanyl-prolyl-valine-p-nitroanilide
Method: The potency of a Compound to act as an inhibitor of human leukocyte elastase (HLE) on the low molecular weight peptide substrate methoxy-succinyl-alanyl-alanyl-prolyl-valine-p-nitroanilide is determined as described in U.S. Pat. No. 4,910,190. The potency of an inhibitor is evaluated by obtaining a kinetic determination of the dissociation constant, Ki, of the complex formed from the interaction of the inhibitor with HLE. If a Compound is found to be a "slow-binding" inhibitor of HLE, special methods of analysis to accurately determine Ki values for the inhibition of HLE are carried out as described in U.S. Pat. No. 4,910,190.

Work on `CC(C)C(NC(=O)Cn1ccc2c(=O)n(CC(=O)OCc3ccccc3)c(=O)[nH]c2c1=O)C(=O)C(F)(F)F` (stereo not shown) [Example 13] yielded a Ki of 44 nM.
